Source: patent US7524853B2 (Solvay Pharmaceuticals B.V., priority 2003, dated 2009)

Assays:
Format in all cases: cell-based
[1] = target: T1, 17β-hydroxysteroid dehydrogenase type 1 (17β-HSD type 1) (Homo sapiens, UniProt P14061); experiment: Inhibition of 17β-HSD type 1 in MCF-7 cells stably expressing the isoenzyme (tritium labeled estrone conversion, HPLC); conditions: MCF-7 cells expressing 17β-HSD type 1, 2 nM tritium labeled estrone; for inhibition at 1 µM / inhibition at 10 µM: MCF7; for inhibition at 1 µM / % Inhibition HSD1 1 μM: 1 μM test compound; for inhibition at 1 µM: read-out: % Inhibition HSD1 1 μM; for inhibition at 10 µM / % Inhibition HSD1 10 μM: 10 μM test compound; for inhibition at 10 µM: read-out: % Inhibition HSD1 10 μM
T1 construct: expressed in transfected cells; host or cells: MCF-7
T1 sequence (P14061 1-328): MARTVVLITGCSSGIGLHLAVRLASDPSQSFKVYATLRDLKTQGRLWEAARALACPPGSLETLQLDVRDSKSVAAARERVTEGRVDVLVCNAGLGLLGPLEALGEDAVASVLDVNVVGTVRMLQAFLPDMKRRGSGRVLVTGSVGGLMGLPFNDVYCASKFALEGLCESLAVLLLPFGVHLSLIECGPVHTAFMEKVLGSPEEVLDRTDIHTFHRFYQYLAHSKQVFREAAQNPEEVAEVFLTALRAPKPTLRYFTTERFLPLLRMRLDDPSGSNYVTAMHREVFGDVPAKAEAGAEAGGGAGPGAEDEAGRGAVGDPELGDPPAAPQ
Summary of the method: (§1)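 Cells: stable MCF-7 transfectants per isoenzyme. Step one, add compound (two concentrations) plus 2 nM labelled substrate to growth medium. Step two, remove medium at a set time and stop with trichloroacetic acid. Step three, quantify conversion by HPLC with flow scintillation.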

[2] = target: T2, 17β-hydroxysteroid dehydrogenase type 2 (17β-HSD type 2) (Homo sapiens, UniProt P37059); experiment: Inhibition of 17β-HSD type 2 in MCF-7 cells stably expressing the isoenzyme (tritium labeled estradiol conversion, HPLC); conditions: MCF-7 cells expressing 17β-HSD type 2, 2 nM tritium labeled estradiol; for inhibition at 1 µM / inhibition at 10 µM: MCF7; for inhibition at 1 µM / % Inhibition HSD2 1 μM: 1 μM test compound; for inhibition at 1 µM: read-out: % Inhibition HSD2 1 μM; for inhibition at 10 µM / % Inhibition HSD2 10 μM: 10 μM test compound; for inhibition at 10 µM: read-out: % Inhibition HSD2 10 μM
T2 construct: expressed in transfected cells; host or cells: MCF-7
T2 sequence (P37059 1-387): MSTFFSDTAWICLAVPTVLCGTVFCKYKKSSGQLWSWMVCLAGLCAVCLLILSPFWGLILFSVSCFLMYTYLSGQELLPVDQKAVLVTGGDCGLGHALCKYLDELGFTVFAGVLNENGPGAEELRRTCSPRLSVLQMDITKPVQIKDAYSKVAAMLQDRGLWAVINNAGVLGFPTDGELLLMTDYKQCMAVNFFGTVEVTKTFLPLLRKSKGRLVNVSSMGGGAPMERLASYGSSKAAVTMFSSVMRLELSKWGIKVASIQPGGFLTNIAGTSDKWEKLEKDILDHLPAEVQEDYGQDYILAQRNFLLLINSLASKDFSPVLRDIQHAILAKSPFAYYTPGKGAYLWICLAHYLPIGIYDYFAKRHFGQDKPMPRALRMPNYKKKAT
Summary of the method: as §1

[3] = target: T3, 17β-hydroxysteroid dehydrogenase type 3 (17β-HSD type 3) (Homo sapiens, UniProt P37058); experiment: Inhibition of 17β-HSD type 3 in MCF-7 cells stably expressing the isoenzyme (tritium labeled androstenedione conversion, HPLC); conditions: MCF-7 cells expressing 17β-HSD type 3, 2 nM tritium labeled androstenedione; for inhibition at 1 µM / inhibition at 10 µM: MCF7; for inhibition at 1 µM / % Inhibition HSD3 1 μM: 1 μM test compound; for inhibition at 1 µM: read-out: % Inhibition HSD3 1 μM; for inhibition at 10 µM / % Inhibition HSD3 10 μM: 10 μM test compound; for inhibition at 10 µM: read-out: % Inhibition HSD3 10 μM
T3 construct: expressed in transfected cells; host or cells: MCF-7
T3 sequence (P37058 1-310): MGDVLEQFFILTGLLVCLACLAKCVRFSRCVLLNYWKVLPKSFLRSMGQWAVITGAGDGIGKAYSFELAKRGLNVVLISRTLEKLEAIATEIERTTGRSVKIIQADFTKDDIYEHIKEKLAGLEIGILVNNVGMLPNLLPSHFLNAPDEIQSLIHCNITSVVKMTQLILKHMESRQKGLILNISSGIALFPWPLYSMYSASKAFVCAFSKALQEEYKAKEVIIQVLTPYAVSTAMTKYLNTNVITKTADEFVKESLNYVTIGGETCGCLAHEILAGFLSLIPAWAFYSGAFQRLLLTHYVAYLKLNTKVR
Summary of the method: as §1

SMILES | inhibition at 1 µM [1] [%] | inhibition at 10 µM [1] [%] | inhibition at 1 µM [2] [%] | inhibition at 10 µM [2] [%] | inhibition at 1 µM [3] [%] | inhibition at 10 µM [3] [%] | % Inhibition HSD1 1 μM [1] [%] | % Inhibition HSD1 10 μM [1] [%] | % Inhibition HSD2 1 μM [2] [%] | % Inhibition HSD2 10 μM [2] [%] | % Inhibition HSD3 1 μM [3] [%] | % Inhibition HSD3 10 μM [3] [%]
O=C(OCCn1c(-c2cccs2)nc2sc3c(O)cccc3c2c1=O)c1cccs1 [No. 73, Thiophene-2-carboxylic acid 2-(8-hydroxy-4-oxo-2-thiohen-2-yl-4H-benzo[4,5]thieno[2,3-d]pyrimidin-3-yl)-ethyl ester] | 26.8 | 32.8 | 58.3 | 90.5 | 37.9 | 82.6 |  |  |  |  |  | 
Cc1nc2sc3c(c2c(=O)n1-c1ccccc1)CCCC3 [No. 24, 2-Methyl-3-phenyl-5,6,7,8-tetrahydro-3H-benzo[4,5]thieno[2,3-d]pyrimidin-4-one] | -7.5 | 15.4 | 4.1 | 9.7 | 17.1 | 30.9 |  |  |  |  |  | 
COc1ccc(-c2nc3sc4cc(C=O)ccc4c3c(=O)n2Cc2ccccc2)cc1 [No. 17, 3-Benzyl-2-(p-methoxyphenyl)-4-oxo-3,4-dihydro-benzo[4,5]thieno[2,3-d]pyrimidine-7-carbaldehyde] | 18.1 | 48.3 | -5.4 | 20.9 | 43.5 | 100 |  |  |  |  |  | 
CCCCC(CC)c1nc2sc3c(O)cccc3c2c(=O)n1Cc1ccccc1 (stereo not drawn) [No. 663] |  |  |  |  |  |  | 26.3 | 24.6 | 37.4 | 57.6 | 12.4 | 45.6
CC(C)=Cc1nc2sc3c(O)cccc3c2c(=O)n1CCc1cccs1 [No. 648] |  |  |  |  |  |  | 18.0 | 24.6 | 16.0 | 40.2 | 17.7 | 70.1
COCCn1c(-c2cc(OC)c(OC)c(OC)c2Br)nc2sc3c(c2c1=O)CCC(Br)C3=O (stereo not drawn) [No. 111, 7-Bromo-2-(2-bromo-3,4,5-trimethoxyphenyl)-3-(2-methoxyethyl)-6,7-dihydro-3H,5H-benzo[4,5]thieno[2,3-d]pyrimidine-4,8-dione] | 23.8 | 56.9 | 24.7 | 48.7 | 7.3 | 41.5 |  |  |  |  |  | 
COc1ccc(-c2nc3sc4c(c3c(=O)n2Cc2ccccc2)CCC(Br)C4=O)cc1 (stereo not drawn) [No. 146, 3-Benzyl-7-bromo-2-p-methoxyphenyl-6,7-dihydro-3H,5H-benzo[4,5]thieno[2,3-d]pyrimidine-4,8-dione] | 7.3 | 50.9 | 14.3 | 5.1 | 14.7 | 37.9 |  |  |  |  |  | 
O=C1CCCc2c1sc1nc(-c3ccccc3)n(Cc3ccccc3)c(=O)c21 [No. 57, 3-Benzyl-2-phenyl-6,7-dihydro-3H,5H-benzo[4,5]thieno[2,3-d]pyrimidine-4,8-dione] | 23 | 47.3 | 17.5 | 28.5 | 19.7 | 57.3 |  |  |  |  |  | 
O=c1c2c3c(sc2nc(-c2cc(O)c(O)c(O)c2)n1Cc1ccccc1)CCCC3 [No. 41, 3-Benzyl-2-(3,4,5-trihydroxyphenyl)-5,6,7,8-tetrahydro-3H-benzo[4,5]thieno[2,3-d]pyrimidin-4-one] | 5.7 | 10 | 17.9 | 17.7 | 22.5 | 34.5 |  |  |  |  |  | 
CCC(C)Cn1c(-c2cc(OC)c(OC)c(OC)c2Br)nc2sc3c(c2c1=O)CCC(Br)(Br)C3=O (stereo not drawn) [No. 128, 7,7-Dibromo-2-(2-bromo-3,4,5-trimethoxyphenyl)-3-(2-methylbutyl)-6,7-dihydro-3H,5-benzo[4,5]thieno[2,3-d]pyrimidine-4,8-dione] | 17.9 | 25.9 | -4.9 | 0 | 4.7 | 6.3 |  |  |  |  |  | 
COc1ccc(-c2nc3sc4c(Oc5ccccc5)c(CO)ccc4c3c(=O)n2Cc2ccccc2)cc1 [No. 20, 3-Benzyl-7-hydroxymethyl-2-(p-methoxyphenyl)-8-phenoxy-3H-benzo[4,5]thieno[2,3-d]pyrimidin-4-one] | 26 | 37.5 | -1.7 | 16.6 | 9.9 | 61.1 |  |  |  |  |  | 

More lines, now with the values ahead:

inhibition at 1 µM [1] [%] | inhibition at 10 µM [1] [%] | inhibition at 1 µM [2] [%] | inhibition at 10 µM [2] [%] | inhibition at 1 µM [3] [%] | inhibition at 10 µM [3] [%] | % Inhibition HSD1 1 μM [1] [%] | % Inhibition HSD1 10 μM [1] [%] | % Inhibition HSD2 1 μM [2] [%] | % Inhibition HSD2 10 μM [2] [%] | % Inhibition HSD3 1 μM [3] [%] | % Inhibition HSD3 10 μM [3] [%] | SMILES
27.4 | 59.3 | 6.6 | -9 | 8 | 36.3 |  |  |  |  |  |  | CCC(C)Cn1c(-c2cc(OC)c(OC)c(OC)c2)nc2sc3c(c2c1=O)CCCC3=O (stereo not drawn) [No. 126, 3-(2-Methylbutyl)-2-(3,4,5-trimethoxyphenyl)-6,7-dihydro-3H,5H-benzo[4,5]thieno[2,3-d]pyrimidine-4,8-dione]
37.7 | 84.7 | 31.2 | 40.1 | 30.9 | 80.1 |  |  |  |  |  |  | COc1cc(-c2nc3sc4c(c3c(=O)n2CC2CCCO2)CCCC4=O)cc(OC)c1OC (stereo not drawn) [No. 131, 3-(Tetrahydro-furan-2-ylmethyl)-2-(3,4,5-trimethoxyphenyl)-6,7-dihydro-3H,5H-benzo[4,5]thieno[2,3-d]pyrimidine-4,8-dione]
-3.3 | 5.5 | 8.3 | 5.6 | 1.7 | 7.3 |  |  |  |  |  |  | COc1cc(-c2nc3sc4c(c3c(=O)n2Cc2ccccc2)CC(C)CC4)cc(OC)c1OC (stereo not drawn) [No. 687, 3-Benzyl-6-methyl-2-(3,4,5-trimethoxyphenyl)-5,6,7,8-tetrahydro-3H-benzo[4,5]thieno[2,3-d]pyrimidin-4-one]
46.8 | 85.3 | 23.9 | 53.1 | 34.7 | 78.6 |  |  |  |  |  |  | CCC(C)Cn1c(-c2cc(OC)c(OC)c(OC)c2)nc2sc3c(O)cccc3c2c1=O (stereo not drawn) [No. 129, 8-Hydroxy-3-(2-methylbutyl)-2-(3,4,5-trimethoxyphenyl)-3H-benzo[4,5]thieno[2,3-d]pyrimidin-4-one]
26.8 | 67.4 | 24.6 | 23.4 | 13 | 31.9 |  |  |  |  |  |  | CCCCn1c(-c2cc(OC)c(OC)c(OC)c2)nc2sc3c(c2c1=O)CCC(Br)C3=O (stereo not drawn) [No. 87, 7-Bromo-3-butyl-2-(3,4,5-trimethoxyphenyl)-6,7-dihydro-3H,5H-benzo[4,5]thieno[2,3-d]pyrimidine-4,8-dione]
18 | 28.6 | 12.7 | 21 | 9.8 | 35 |  |  |  |  |  |  | CCCCn1c(-c2cc(OC)c(OC)c(OC)c2)nc2sc3c(c2c1=O)CC(C)CC3=O (stereo not drawn) [No. 692, 3-Butyl-6-methyl-2-(3,4,5-trimethoxyphenyl)-6,7-dihydro-3H,5H-benzo[4,5]thieno[2,3-d]pyrimidin-4,8-dione]
